Results taken from patent publication US12668587B2, “Benzimidazolone GLP-1 receptor agonist and use thereof” (HANGZHOU ZHONGMEIHUADONG PHARMACEUTICAL CO., LTD., priority 2020, dated 2026).

Key:
[1] = biological target: Human GLP-1R (Homo sapiens, UniProt P43220); experiment: GLP-1R agonist activity, HTRF cAMP detection in 293A GFP-GLP-1R cells; parameters: Emax: dose or concentration left out as unconfirmed; conditions: for Emax: 293A
Experimental: GLP-1R-mediated agonist activity was determined by cell-based assays using a homogeneous time-resolved fluorescence (i.e., HTRF)-based cAMP detection kit, which measures the level of cAMP in cells. The method was a competitive immunoassay. It enabled direct pharmacological characterization of compounds acting on Gs-coupled receptors in adherent or suspending cells.
The standard curve of native cAMP or unlabeled cAMP produced by cells competed with d2-labeled cAMP red receptors to bind monoclonal anti-cAMP Eu3+ cryptate donors, and the specific signal was inversely proportional to the concentration of cAMP in standard or tested samples.
Human GLP-1R encoding sequence (NCBI reference sequence NP_002053.3) was subcloned into pEGFP-N1 (tsingke), and the cell line stably expressing the receptor was isolated. The expression density of GLP-1R was confirmed by the expression of GFP observed under a fluorescence microscope.
Cells were collected from a T25 tissue culture flask and centrifuged at room temperature at 1000 rpm for 5 minutes. The cell precipitates were then re-suspended in 1 mL of the stimulating buffer. 20 μL sample of cell suspension was counted on a counter STAR IC 1000 to determine the cell viability and the cell count per mL. The remaining cell suspension was then regulated with the stimulating buffer to deliver 2000 living cells per well using a multi-channel pipette. 5 μL of the cell suspension was added to each well of the plate which already contained the compound. The plate was sealed and incubated at 37° C. with 5% CO2 for 30 minutes.
After 30 minutes of incubation, 5 μL of d2-labeled cAMP and 5 μL of anti-cAMP cryptate (both 1: 20 diluted in the cell lysis buffer) were added to each well of the plate. The plate was then incubated at room temperature for 60 minutes, and the changes of HTRF signal were read with Tecan Spark reader: absorbance values at 340 nm (excitation)/at 615 nm and 665 nm (emission). Raw data were converted into nM cAMP by interpolation from the cAMP standard curve, and the effect in percentage was determined relative to the saturated concentration of the complete agonist GLP-17˜37 (400 nM) contained in each plate. Determination of EC50 was performed based on the agonist dose-response curve, which was analyzed using a four-parameter logical dose-response equation with a curve fitting program.
The test data presented the results in the form of a geometric mean (EC50s) based on the number of repetition times.

[2] = biological target: hERG potassium channels (Homo sapiens, UniProt Q12809); experiment: Inhibition of hERG potassium channels, whole-cell patch clamp in HEK-293-hERG cells
[3] = Metabolic stability in (human) liver microsomes; conditions: pH 7.4

Human GLP-1R, sequence (P43220 24-463): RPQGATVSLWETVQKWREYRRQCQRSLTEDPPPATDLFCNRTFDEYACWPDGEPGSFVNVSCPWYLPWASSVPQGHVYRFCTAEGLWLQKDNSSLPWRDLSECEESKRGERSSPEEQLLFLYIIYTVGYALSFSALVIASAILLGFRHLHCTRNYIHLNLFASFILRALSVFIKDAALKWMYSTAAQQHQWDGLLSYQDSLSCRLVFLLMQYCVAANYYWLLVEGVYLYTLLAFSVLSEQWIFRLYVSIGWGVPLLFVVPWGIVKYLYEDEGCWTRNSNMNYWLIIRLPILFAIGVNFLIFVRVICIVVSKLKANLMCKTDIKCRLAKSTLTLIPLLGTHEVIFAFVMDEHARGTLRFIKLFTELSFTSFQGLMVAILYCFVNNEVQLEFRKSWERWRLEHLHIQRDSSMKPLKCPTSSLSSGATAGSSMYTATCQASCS
hERG potassium channels, sequence (Q12809 whole entry): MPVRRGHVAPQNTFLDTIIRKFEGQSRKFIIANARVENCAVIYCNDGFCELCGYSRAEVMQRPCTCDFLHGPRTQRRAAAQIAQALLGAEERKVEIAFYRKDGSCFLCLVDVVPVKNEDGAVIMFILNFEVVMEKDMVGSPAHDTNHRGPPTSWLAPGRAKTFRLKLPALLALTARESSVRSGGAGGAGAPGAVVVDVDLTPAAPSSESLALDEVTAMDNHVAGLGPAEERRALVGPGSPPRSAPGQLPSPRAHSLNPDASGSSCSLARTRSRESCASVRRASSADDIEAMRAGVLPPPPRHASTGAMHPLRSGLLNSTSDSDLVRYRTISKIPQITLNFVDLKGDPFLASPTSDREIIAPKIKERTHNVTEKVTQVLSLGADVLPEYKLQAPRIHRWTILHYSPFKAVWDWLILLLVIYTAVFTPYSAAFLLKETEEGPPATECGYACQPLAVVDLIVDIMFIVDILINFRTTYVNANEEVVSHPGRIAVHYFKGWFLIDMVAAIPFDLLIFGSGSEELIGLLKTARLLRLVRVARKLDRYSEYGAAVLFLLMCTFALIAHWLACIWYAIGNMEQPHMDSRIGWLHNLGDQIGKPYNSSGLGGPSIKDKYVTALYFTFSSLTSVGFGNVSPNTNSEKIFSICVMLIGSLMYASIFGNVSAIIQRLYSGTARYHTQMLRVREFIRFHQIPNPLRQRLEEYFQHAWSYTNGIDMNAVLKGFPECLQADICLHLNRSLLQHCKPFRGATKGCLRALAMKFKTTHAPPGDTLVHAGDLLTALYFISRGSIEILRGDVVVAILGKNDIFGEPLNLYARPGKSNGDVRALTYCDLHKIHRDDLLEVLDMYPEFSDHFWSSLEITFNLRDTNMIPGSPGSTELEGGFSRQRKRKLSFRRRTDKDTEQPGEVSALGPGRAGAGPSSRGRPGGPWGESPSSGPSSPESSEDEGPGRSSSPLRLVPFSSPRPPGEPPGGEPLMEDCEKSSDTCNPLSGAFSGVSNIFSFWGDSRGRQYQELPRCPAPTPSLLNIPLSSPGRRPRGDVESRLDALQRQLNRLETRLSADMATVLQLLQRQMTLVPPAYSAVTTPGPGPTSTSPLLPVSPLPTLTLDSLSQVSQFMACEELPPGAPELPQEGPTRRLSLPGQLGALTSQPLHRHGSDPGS

Row | EC50 [1] [nM] | Emax [1] [%] | half-life at 1 μM [3] [min] | SMILES | hERG (IR) ([2]; inhibition rate of hERG tail current at 1 μM) [%] | hERG (IR) ([2]; inhibition rate of hERG tail current at 10 μM) [%]
1 | 0.7 | 81.5 | 14.2 | CC(=O)c1ccc(COc2cccc(C3=CCN(Cc4nc5ccc(C(=O)O)cc5n4C[C@@H]4CCO4)CC3)n2)c(F)c1 [Compound 34, (S)-2-((6-((4-acetyl-2-fluorobenzyl)oxy)-3′,6′-dihydro-[2,4′-bipyridin]-1′(2′H)-yl)methyl)-1-(oxetan-2-ylmethyl)-1H-benzo[d]imidazole-6-carboxylic acid] | – | –
2 | 0.95 | 100 | 25.5 | CCC(=O)c1ccc(COc2cccc(C3=CCN(Cc4nc5ccc(C(=O)O)cc5n4C[C@@H]4CCO4)CC3)n2)c(F)c1 [Compound 25, (S)-2-((6-((2-fluoro-4-propionylbenzyl)oxy)-3′,6′-dihydro-[2,4′-bipyridin]-1′(2′H)-yl)methyl)-1-(oxetan-2-ylmethyl)-1H-benzo[d]imidazole-6-carboxylic acid] | – | –
3 | 0.013 | – | – | N#CCC1(Cn2c(CN3CCC(c4cccc(OCc5ccc(C(=O)C6CC6)cc5F)n4)CC3)nc3ccc(C(=O)O)cc32)CC1 [Compound 45] | – | –

Row | SMILES | EC50 [1] [nM] | Emax [1] [%] | half-life at 1 μM [3] [min] | hERG (IR) ([2]; inhibition rate of hERG tail current at 1 μM) [%] | hERG (IR) ([2]; inhibition rate of hERG tail current at 10 μM) [%]
4 | O=C(O)c1ccc2nc(CN3CC=C(c4cccc(OCc5ccc(C(=O)C6CC6)cc5F)n4)CC3)n(C[C@@H]3CCO3)c2c1 [Compound 22, (S)-2-((6-((4-(cyclopropanecarbonyl)-2-fluorobenzyl)oxy)-3′,6′-dihydro-[2,4′-bipyridin]-1′(2′H)-yl)methyl)-1-(oxetan-2-ylmethyl)-1H-benzo[d]imidazole-6-carboxylic acid] | 2.07 | 83.4 | 60.1 | 0.92 | 23.50
